This note sets out measurements from patent EP4737448A1, “SARM1 ENZYME ACTIVITY INHIBITOR AND USE THEREOF” (Artivila (ShenZhen) Innovation Center, Ltd., priority 2023, dated 2025).

The test deals with T1, SARM1 (Homo sapiens, UniProt Q6SZW1).
T1 construct: the inventor produces full-length SARM1 for NADase activity assays and for screening; His (C); made in house; host or cells: HEK293 cells (transient transfection; digitonin lysate supernatant, not purified further)
T1 sequence (Q6SZW1 28-724): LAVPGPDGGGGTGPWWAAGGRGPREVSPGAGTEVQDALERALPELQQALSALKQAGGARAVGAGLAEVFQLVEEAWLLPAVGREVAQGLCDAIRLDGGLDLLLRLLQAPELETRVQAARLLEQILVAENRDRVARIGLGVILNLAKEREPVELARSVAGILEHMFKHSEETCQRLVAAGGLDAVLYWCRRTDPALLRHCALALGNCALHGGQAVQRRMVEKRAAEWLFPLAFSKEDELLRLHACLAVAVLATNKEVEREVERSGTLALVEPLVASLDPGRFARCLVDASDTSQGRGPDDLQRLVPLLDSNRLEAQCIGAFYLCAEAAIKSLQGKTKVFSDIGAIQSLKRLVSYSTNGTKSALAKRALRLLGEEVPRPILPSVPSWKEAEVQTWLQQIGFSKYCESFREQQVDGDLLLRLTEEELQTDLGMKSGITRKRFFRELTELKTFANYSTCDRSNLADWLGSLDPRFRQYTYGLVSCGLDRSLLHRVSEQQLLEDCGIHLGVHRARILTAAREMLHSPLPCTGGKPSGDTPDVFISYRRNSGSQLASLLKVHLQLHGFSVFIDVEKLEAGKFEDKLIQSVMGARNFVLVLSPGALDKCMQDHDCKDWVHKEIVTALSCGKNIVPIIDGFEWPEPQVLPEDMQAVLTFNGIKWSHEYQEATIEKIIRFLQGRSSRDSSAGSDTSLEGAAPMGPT
Kind of test: In vitro biochemical assay for inhibiting SARM1 enzymatic activity (PC6 fluorescence, NAD substrate, NMN activator). The note with it: 0.05 µg/mL SARM1, 50 µM NAD, 50 µM PC6, 50 µM NMN, 10 min pre-incubation, 30 min at room temperature. How it is done: Compounds to be tested were stocked at 200 µM or 10 mM (in DMSO), and further diluted to the desired compound concentration for the in vitro SARM1 enzyme assay and inhibitor screening.
The gene sequence encoding SARM1 protein was amplified by PCR and the PCR amplification product was constructed into the pcDNA3.1-HIS-C plasmid. This construction was completed by YouBio Biological Technology (Hunan, China).
HEK293 cells were cultured in DMEM in a 10 cm dish. The next day, cells were transfected with 15 µg of the pcDNA3.1-SARM1-HIS-C expression plasmid.
Cells were harvested 48 hours after the transfection. The SARM1 protein expressed in cells was obtained through cell lysis by digitonin, which was used for in vitro activity assay. The specific process was as follows:
Cells were digested and detached from the dish using trypsin-EDTA, centrifuged at 1000 rpm for 5 minutes, washed once with PBS, then resuspended in PBS containing 100 µM digitonin at 0.6 mL PBS for the cells in 10 cm dish and lysed for 5 min. The cells were added with trypan blue and observed under a microscope. More than 90% of the cells were confirmed to be lysed. The cells were centrifuged at 5000 rpm for 10 min, and the supernatant containing SARM1 protein was collected.
The compound was added into a solution of 50 mM Tris-HCl (pH 7.5) containing 0.05 µg/mL SARM1 to achieve a concentration of 200 µM, and then serially diluted 6 times, where each dilution was carried out by taking half of the previous solution and adding an equal volume of 50 mM Tris-HCl (pH 7.5) containing 0.05 µg/mL SARM1, yielding a set of final concentrations of the compound of either 200, 100, 50, 25, 12.5, 6.25 and 3.125 µM, or 200, 50, 12.5, 3.125, 0.78, 0.195 and 0.049 µM. No inhibitor was added in the control group. All mixtures were incubated at room temperature for 10 min.
Subsequently, 50 µM NAD, 50 µM PC6 as substrate and 50 µM NMN as activator were added to the SARM1 protein incubated with the inhibitor and reacted for 30 min at room temperature. Wherein, the aforementioned concentrations of each component represent their respective final concentrations in the reaction system
During the reaction, the fluorescence spectrum dynamics of PC6 was detected by a microplate reader, with excitation and emission wavelengths set at 390 nm and 520 nm, respectively. The activity of the protein was expressed as the reaction rate and half maximal inhibitory concentration was calculated. The higher the reaction rate, the stronger the protein activity, and the lower the inhibitory efficiency of the compound.
Dose-response curves for inhibition of SARM1 enzymatic activity for NAD by the compounds were plotted using the above method.
With `O=C1C(Cc2ccc(Cl)cc2)=CCN1c1ccc(-c2ccncc2)cc1` [Compound 22], the IC50 is 1 to 10 µM.

As for `S=C1C(Cc2ccc(Cl)cc2)CCN1c1ccc(-c2ccncc2)cc1` (stereo not shown) [Compound 12], the IC50 was under 1 µM.

Take `CN1CCN(Cc2ccc(CC3CCN(c4ccc(-c5ccncc5)cc4)C3=O)cc2)CC1` (stereo not shown) [Compound 88, 3-(4-((4-methylpiperazin-1-yl)methyl)benzyl)-1-(4-(pyridin-4-yl)phenyl)pyrrolidin-2-one]: the IC50 was in the range of 10 to 30 µM. For `O=C1C(Cc2ccc(Br)cc2)CCN1c1ccc(-c2ccncc2)cc1` (stereo not shown) [Compound 31, 3-(4-bromobenzyl)-1-(4-(pyridin-4-yl)phenyl)pyrrolidin-2-one], the IC50 lay within 10 to 30 µM. With `O=C1C(CCc2ccc(Cl)cc2)CCN1c1ccc(-c2ccncc2)cc1` (stereo not shown) [Compound 27, 3-(4-chlorophenethyl)-1-(4-(pyridin-4-yl)phenyl)pyrrolidin-2-one] the figure was 10 to 30 µM; with `COC(=O)c1ccc(CC2CCN(c3ccc(-c4ccncc4)cc3)C2=O)cc1` (stereo not shown) [Compound 86, methyl 4-((2-oxo-1-(4-(pyridin-4-yl)phenyl)pyrrolidin-3-yl)methyl)benzoate], 1 to 10 µM.

As for `O=C1C(Cc2cccc(Cl)c2)CCN1c1ccc(-c2ccncc2)cc1` (stereo not shown) [Compound 26, 3-(3-chlorobenzyl)-1-(4-(pyridin-4-yl)phenyl)pyrrolidin-2-one], the IC50 lay in the range of 10 to 30 µM.

In turn, `O=C1C(Cc2ccc(Cl)cc2)CCON1c1ccc(-c2ccncc2)cc1` (stereo not shown) [Compound 40, 4-(4-chlorobenzyl)-2-(4-(pyridin-4-yl)phenyl)-1,2-oxaza-3-one] registered an IC50 of 1 to 10 µM. The molecule `O=C1/C(=C/c2ccc(Cl)cc2)CCN1c1ccc(-c2ccncc2)nn1` [Compound 78, (E)-3-(4-chlorobenzylidene)-1-(6-(pyridin-4-yl)pyridazin-3-yl)pyrrolidin-2-one] registered an IC50 of 10 to 30 µM. For the molecule `O=C1C(Cc2ccc(F)c(F)c2)=CCN1c1ccc(-c2ccncc2)cc1` [Compound 85, 3-(3,4-difluorobenzyl)-1-(4-(pyridin-4-yl)phenyl)-1,5-dihydro-2H-pyrrolidin-2-one], the IC50 fell in the range of 1 to 10 µM.

Consider `O=C1N(Cc2ccc(Cl)cc2)CCN1c1ccc(-c2ccncc2)cc1` [Compound 13, 1-(4-chlorobenzyl)-3-(4-(pyridin-4-yl)phenyl)imidazolin-2-one], for which the IC50 is under 1 µM. With `N#Cc1ccc(CC2CCN(c3ccc(-c4ccncc4)cc3)C2=O)cc1` (stereo not shown) [Compound 19, 3-(4-cyanobenzyl)-1-(4-(pyridin-4-yl)phenyl)pyrrolidin-2-one] the figure was 1 to 10 µM. Regarding `O=C1C(Cc2ccc(Cl)cn2)CCN1c1ccc(-c2ccncc2)cc1` (stereo not shown) [Compound 28], the IC50 fell in the range of 10 to 30 µM. `O=C1C(Cc2ccc(Cl)o2)CCN1c1ccc(-c2ccncc2)cc1` (stereo not shown) [Compound 73] returned an IC50 of 1 to 10 µM. In turn, `COc1cc(-c2ccncc2)ccc1N1CCCC(Cc2ccc(Cl)cc2)C1=O` (stereo not shown) [Compound 39, 3-(4-chlorobenzyl)-1-(2-methoxy-4-(pyridin-4-yl)phenyl)piperidin-2-one] came in with a 50% inhibitory concentration (IC50) of 1 to 10 µM. The same measure for `O=C(O)c1ccc(CC2CCN(c3ccc(-c4ccncc4)cc3)C2=O)cc1` (stereo not shown) [Compound 87, 4-((2-oxo-1-(4-(pyridin-4-yl)phenyl)pyrrolidin-3-yl)methyl)benzoic acid]: 10 to 30 µM; for `CC(=O)c1ccc(CC2CCN(c3ccc(-c4ccncc4)cc3)C2=O)cc1` (stereo not shown) [Compound 91, 3-(4-acetylbenzyl)-1-(4-(pyridin-4-yl)phenyl)pyrrolidin-2-one]: 10 to 30 µM; for `O=C1C(Cc2ccc([N+](=O)[O-])cc2)CCN1c1ccc(-c2ccncc2)cc1` (stereo not shown) [Compound 32, 3-(4-nitrobenzyl)-1-(4-(pyridin-4-yl)phenyl)pyrrolidin-2-one]: 10 to 30 µM.

On to `Cc1ccc(CC2CCN(c3ccc(-c4ccncc4)nn3)C2=O)cc1` (stereo not shown) [Compound 63], for which the IC50 was under 1 µM. With `Cc1cnccc1-c1ccc(N2CCC(Cc3ccc(Cl)cc3)C2=O)nn1` (stereo not shown) [Compound 74, 3-(4-chlorobenzyl)-1-(6-(3-methylpyridin-4-yl)pyridazin-3-yl)pyrrolidin-2-one] the figure was under 1 µM; with `O=C1C(Cc2ccc(Cl)cc2)CCCN1c1ccc(-c2ccncc2)cc1` (stereo not shown) [Compound 38, 3-(4-chlorobenzyl)-1-(4-(pyridin-4-yl)phenyl)piperidin-2-one], 1 to 10 µM; with `O=C1C(Cc2ccc(Cl)cc2)CCN1c1ccc(-c2ccncc2)cc1Cl` (stereo not shown) [Compound 11, 3-(4-chlorobenzyl)-1-(2-chloro-4-(pyridin-4-yl)phenyl)pyrrolidin-2-one], 10 to 30 µM. Turning to `N#Cc1cnccc1-c1ccc(N2CCC(Cc3ccc(Cl)cc3)C2=O)cc1` (stereo not shown) [Compound 36, 3-(4-chlorobenzyl)-1-(4-(3-cyanopyridin-4-yl)phenyl)pyrrolidin-2-one], the IC50 was in the range of 10 to 30 µM. `Cc1cc(N2CCC(Cc3ccc(Cl)cc3)C2=O)ccc1-c1ccncc1` (stereo not shown) [Compound 10, 3-(4-chlorobenzyl)-1-(3-methyl-4-(pyridin-4-yl)phenyl)pyrrolidin-2-one] showed an IC50 of 1 to 10 µM. The same measure for `O=C1C(Cc2ccc(/C=C/Cl)cc2)CCN1c1ccc(-c2ccncc2)cc1` (stereo not shown) [Compound 90, (E)-3-(4-(2-chloroethenyl)benzyl)-1-(4-(pyridin-4-yl)phenyl)pyrrolidin-2-one]: 1 to 10 µM; for `C=C(Cc1ccc(Cl)cc1)C(=O)Nc1ccc(-c2ccncc2)cc1` [Compound 5]: under 1 µM; for `O=C1C(Cc2ccc(Cl)cc2)CCN1c1cnc(-c2ccncc2)nc1` (stereo not shown) [Compound 23, 3-(4-chlorobenzyl)-1-(2-(pyridin-4-yl)pyrimidin-5-yl)pyrrolidin-2-one]: 10 to 30 µM. With `N#Cc1ccc(CC2CCN(c3ccc(-c4ccncc4)nn3)C2=O)cc1` (stereo not shown) [Compound 61] the figure was under 1 µM; with `O=C1C(Cc2ccc(C(F)(F)F)cc2)CCN1c1ccc(-c2ccncc2)cc1` (stereo not shown) [Compound 18, 3-(4-trifluoromethylbenzyl)-1-(4-(pyridin-4-yl)phenyl)pyrrolidin-2-one], 1 to 10 µM. With `CC(c1ccc(Cl)cc1)C1CCN(c2ccc(-c3ccncc3)cc2)C1=O` (stereo not shown) [Compound 4, 3-(1-(4-chlorophenyl)ethyl)-1-(4-(pyridin-4-yl)phenyl)pyrrolidin-2-one] the figure was 10 to 30 µM. `C#Cc1ccc(CC2CCN(c3ccc(-c4ccncc4)cc3)C2=O)cc1` (stereo not shown) [Compound 89, 3-(4-ethynylbenzyl)-1-(4-(pyridin-4-yl)phenyl)pyrrolidin-2-one] yielded an IC50 of 10 to 30 µM. `O=C1C(Cc2ccc(Cl)cc2)CCN1c1ccc(-c2ccncn2)cc1` (stereo not shown) [Compound 9, 3-(4-chlorobenzyl)-1-(4-(pyrimidin-4-yl)phenyl)pyrrolidin-2-one]: the IC50 is 1 to 10 µM.

`O=C1CC(Cc2ccc(Cl)cc2)C(=O)N1c1ccc(-c2ccncc2)cc1` (stereo not shown) [Compound 43, 3-(4-chlorobenzyl)-1-(4-(pyridin-4-yl)phenyl)pyrrolidin-2,5-one] gave an IC50 of 1 to 10 µM. For the molecule `O=C1C(Oc2ccc(Cl)cc2)CCN1c1ccc(-c2ccncc2)cc1` (stereo not shown) [Compound 2, 3-(4-chlorophenoxy)-1-(4-(pyridin-4-yl)phenyl)pyrrolidin-2-one], the IC50 was in the range of 10 to 30 µM.
